PMC9760430, “A stapled chromogranin A-derived peptide homes in on tumors that express αvβ6 or αvβ8 integrins” (International Journal of Biological Sciences, 2023)

What was measured:
[1] = plasma pharmacokinetics in mice; assay type: in vivo; conditions: BALB/c mice, 1 nmol i.v.; plasma fluorescence 5-1440 min; two-phase exponential decay fit; 4 mice per point
Description: Figure S13. Plasma pharmacokinetics of 5a-IRDye in mice.
Eight BALB/c mice were divided in 2 groups (4 mice/group) and injected i.v. with 5a-IRDye (1 nmol). Their blood was then collected into heparinized tubes at 5, 30, 120, 240, and 1440 min (group 1) or after 15, 60, 180, 360, and 1440 min (group 2). Plasma samples (20 µl) were diluted with PBS (50 µl, final volume) and transferred to a black 96-well microtiter plate. The amount of fluorescence in each sample was then quantified using an Infinite 200Pro reader plate (TECAN, excitation wavelength: 766 nm; emission wavelength: 810 nm; excitation bandwidth: 9 nm; emission bandwidth: 20 nm; gain: 180 optimal (100%) and number of flashes:
25). (Dots, mean ± SE, 4 mice). Plasma half-life of 5a-IRdye was calculated using a two-phase exponential decay equation (GraphPad Prism software, San Diego California).
Chromogranin A binds to avb6-integrin and promotes wound healing in mice. Cell Mol […]
(1 picture or pasted object on this page, not shown here)

[2] = tested on: BxPC-3 cells (αvβ6+/αvβ8-); assay: binding of peptide-IRDye conjugates to cultured BxPC-3 cells; assay type: cell-based, human; conditions: 0.32-200 nM, 1 h, 37 °C; bound NIR fluorescence
[3] = tested on: 5M7101 pancreatic adenocarcinoma cells (αvβ6+ and αvβ8-); assay: binding of peptide-IRDye conjugates to cultured 5M7101 cells; assay type: cell-based, murine; conditions: 0.32-200 nM, 1 h, 37 °C; bound NIR fluorescence
Description: (§1) To assess the binding of peptide-IRDye conjugates to cells various amounts of conjugates (range 0.32-200 nM) were added to cultured cells and left to incubate for 1 h at 37 °C. After three washings, the cells were fixed and analyzed by scanning the plate with the Odyssey CLx.
(§2) A control conjugate with a cysteine in place of the peptide was also prepared in parallel. The identity of the purified products, called 5a-IRDye, 2a-IRDye, and Cys-IRDye, was confirmed by mass spectrometry analysis (Table S1). In addition, the purity and identity of 5a-IRDye was monitored by liquid chromatography–mass spectrometry (LC-MS). […]
(§3) that the product consist of a single peak at 230 and 735 nm with the expected molecular weight (purity >95%) (Figure S3A).
(§4) The simplified molecular-input line-entry system (SMILES) of 5a-, 2a-, Cys- and 5a-Scr- […]
(§5) The concentration of each conjugate was quantified by spectrophotometric analysis at 774 nm (molar absorption coefficient, 240,000 M-1, cm-1) (Figure S3B). […]
(§6) The binding of peptide-IRDye conjugates to BxPC-3, 5M7101, and HUVECs cells was analyzed as follows. […]
(§7) chloride and 1% BSA (binding buffer) for 5 min. […] Binding of conjugates to cells was quantified by scanning the plate (filled with PBS, 100 µl/well) with the Odyssey CLx (LI-COR) using the above settings, except that the scan focus offset and scan intensity were set to 4 and 8.5, respectively. […]

[4] = tested on: human umbilical vein endothelial cells (HUVECs) (αvβ6- and αvβ8-); assay: binding of peptide-IRDye conjugates to cultured HUVECs; assay type: cell-based; conditions: 0.32-200 nM, 1 h, 37 °C; bound NIR fluorescence
Description: as §1, §2, §3, §4, §5, §6, §7

## CC[C@H](C)[C@H](NC(=O)[C@H](CCCNC(=N)N)NC(=O)[C@H](CC(C)C)NC(=O)[C@H](CC(=O)O)NC(=O)CNC(=O)[C@H](CCCNC(=N)N)NC(=O)[C@H](CC(C)C)NC(=O)[C@@H](NC(=O)[C@H](CCC(=O)O)NC(=O)[C@H](Cc1ccccc1)NC(=O)[C@@H](N)CSC1CC(=O)N(CCNC(=O)CCCCCN2C(=CC=C3CCCC(C=CC4=[N+](CCCCS(=O)(=O)[O-])c5ccc(S(=O)(=O)O)cc5C4(C)C)=C3Oc3ccc(S(=O)(=O)O)cc3)C(C)(C)c3cc(S(=O)(=O)O)ccc32)C1=O)[C@@H](C)O)C(=O)N[C@@H](CC(C)C)C(=O)N[C@@H](CO)C(=O)N[C@H](C(=O)N[C@@H](CC(C)C)C(=O)N[C@@H](CCCNC(=N)N)C(=O)N[C@H]1Cc2cn(nn2)CCCC[C@@H](C(=O)N[C@@H](CCCCN)C(=O)N[C@@H](CCC(=O)O)C(=O)N[C@@H](CC(C)C)C(=O)N[C@@H](CCC(N)=O)C(=O)N[C@@H](CC(=O)O)C(N)=O)NC(=O)[C@H](CC(C)C)NC(=O)[C@H](CC(N)=O)NC(=O)[C@H](CCC(N)=O)NC1=O)[C@@H](C)CC (stereo partly shown) [5a-IRDye]
[1]
  plasma half-life: ~ 8 min

## CC1(C)C(/C=C/C2=C(Oc3ccc(S(=O)(=O)O)cc3)C(=C\C=C3/N(CCCCCC(=O)NCCN4C(=O)CC(SC[C@H](N)C(=O)O)C4=O)c4ccc(S(=O)(=O)O)cc4C3(C)C)/CCC2)=[N+](CCCCS(=O)(=O)O)c2ccc(S(=O)(=O)[O-])cc21 (stereo partly shown) [Cys-IRDye]
[2]
  binding of conjugate to BxPC-3 cells: little or no binding
[3]
  binding of conjugate to 5M7101 cells: little or no binding
[4]
  binding of conjugate to HUVECs: little or no binding
